Source: patent US20210253651A1, “METHOD FOR PRODUCING ORGANIC COMPOUND-ENCAPSULATING FERRITIN” (Ajinomoto Co., Inc., priority 2018, published 2021)

Assays:
[1] = single or first pKa value; cited from earlier work
[2] = target: T1, FTH ferritin (Homo sapiens, UniProt P02794); test: one-step process incorporation of small molecule agents into FTH ferritin; format: physicochemical; conditions: for Incorporation efficiency (wt %) / Number of agent incorporated: 60 min; for Optimal pH in reaction: pH of buffer giving the largest amount of incorporation within ferritin
T1 construct: made in house; host or cells: Escherichia coli BL21 (DE3), plasmid pET20-FTH
T1 sequence (P02794 whole entry): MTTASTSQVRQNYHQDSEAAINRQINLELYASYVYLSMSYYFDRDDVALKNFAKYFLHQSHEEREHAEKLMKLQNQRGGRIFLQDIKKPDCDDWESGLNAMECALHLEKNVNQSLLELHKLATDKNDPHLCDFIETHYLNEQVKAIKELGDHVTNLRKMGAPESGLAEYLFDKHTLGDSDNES
Procedure: All of the reactions were performed in 0.1 mL volume. […] The absorbances were measured using spectrophotometer (DU-800, Beckman Coulter Inc.) for these solutions, and the concentration of contained protein was determined using the protein assay CBB solution (Nacalai Tesque, Inc.) as well as bovine albumin as a standard. Absorbances at 280 nm and 480 nm were measured for Rhodamine B and Congo Red. […] Then, after the absorbances were calibrated based on the absorbances that were derived from the proteins and presumed by the amount of contained protein quantified using the protein assay CBB solution, the concentrations of small molecule agents were determined based on the calibration curves obtained by the absorbances of the molecules. […] As a result, the one-step process enabled incorporating also the small molecule agents with different physical properties such as molecular weight and pKa simply and easily.

[3] = cited from earlier work

Compound	Incorporation efficiency (wt %) ([2]; pH 6, 20° C.)	Number of agent incorporated ([2]; pH 6, 20° C.)	Incorporation efficiency (wt %) ([2]; pH 6, 40° C.)	Number of agent incorporated ([2]; pH 6, 40° C.)	Incorporation efficiency (wt %) ([2]; pH 6, 60° C.)	Number of agent incorporated ([2]; pH 6, 60° C.)	Optimal pH in reaction [2]	Number of agent incorporated ([2]; pH 4, 40° C.)	Number of agent incorporated ([2]; pH 8, 40° C.)	Number of agent incorporated ([2]; pH 10, 40° C.)	pKa [1]	logP [3]	Incorporation efficiency (wt %) ([2]; pH 4, 40° C.)	Incorporation efficiency (wt %) ([2]; pH 8, 40° C.)	Incorporation efficiency (wt %) ([2]; pH 10, 40° C.)	other results
Nc1c(/N=N/c2ccc(-c3ccc(/N=N/c4cc(S(=O)(=O)[O-])c5ccccc5c4N)cc3)cc2)cc(S(=O)(=O)[O-])c2ccccc12.[Na+].[Na+] [Congo Red]	0.2 wt %	1.4	0.2 wt %	1.7	0.4 wt %	2.8	4				4.1	−1.88				Incorporation efficiency (wt %) ([2]; pH 3, 25° C.): 0.0 wt %; Number of agent incorporated ([2]; pH 3, 25° C.): 0.2; Incorporation efficiency (wt %) ([2]; pH 4, 25° C.): 0.5 wt %; Number of agent incorporated ([2]; pH 4, 25° C.): 3.7; Incorporation efficiency (wt %) ([2]; pH 5, 25° C.): 0.1 wt %; Number of agent incorporated ([2]; pH 5, 25° C.): 1.0; Incorporation efficiency (wt %) ([2]; pH 6, 10° C.): 0.2 wt %; Number of agent incorporated ([2]; pH 6, 10° C.): 1.4; Incorporation efficiency (wt %) ([2]; pH 6, 25° C.): 0.1 wt %; Number of agent incorporated ([2]; pH 6, 25° C.): 0.9; Incorporation efficiency (wt %) ([2]; pH 6, 30° C.): 0.2 wt %; Number of agent incorporated ([2]; pH 6, 30° C.): 1.6; Incorporation efficiency (wt %) ([2]; pH 6, 50° C.): 0.2 wt %; Number of agent incorporated ([2]; pH 6, 50° C.): 1.8; Incorporation efficiency (wt %) ([2]; pH 7, 25° C.): 0.1 wt %; Number of agent incorporated ([2]; pH 7, 25° C.): 0.7; Incorporation efficiency (wt %) ([2]; pH 8, 25° C.): 0.1 wt %; Number of agent incorporated ([2]; pH 8, 25° C.): 0.8; Incorporation efficiency (wt %) ([2]; pH 9, 25° C.): 0.1 wt %; Number of agent incorporated ([2]; pH 9, 25° C.): 0.8
CN1CC(=O)NC1=N [Creatinine]							4				2.96	−1.6				Incorporation efficiency (wt %) ([2]; pH 4, 20° C.): 0.4 wt %; Number of agent incorporated ([2]; pH 4, 20° C.): 15.8; Incorporation efficiency (wt %) ([2]; pH 4, 60° C.): 0.5 wt %; Number of agent incorporated ([2]; pH 4, 60° C.): 24.8
NC(=O)c1cccnc1 [Nicotinamide]			0.2 wt %	6.8			4	15.6	13.9	7.6	3.35	−0.37	0.4 wt %	0.3 wt %	0.2 wt %	

Further lines, with some results ahead:

Incorporation efficiency (wt %) ([2]; pH 6, 20° C.)	Number of agent incorporated ([2]; pH 6, 20° C.)	Incorporation efficiency (wt %) ([2]; pH 6, 40° C.)	Number of agent incorporated ([2]; pH 6, 40° C.)	Incorporation efficiency (wt %) ([2]; pH 6, 60° C.)	Number of agent incorporated ([2]; pH 6, 60° C.)	Optimal pH in reaction [2]	Number of agent incorporated ([2]; pH 4, 40° C.)	Number of agent incorporated ([2]; pH 8, 40° C.)	Number of agent incorporated ([2]; pH 10, 40° C.)	Compound	pKa [1]	logP [3]	Incorporation efficiency (wt %) ([2]; pH 4, 40° C.)	Incorporation efficiency (wt %) ([2]; pH 8, 40° C.)	Incorporation efficiency (wt %) ([2]; pH 10, 40° C.)	other results
	36.9		15.1		23.4	6	0.0	8.4	5.1	NC(N)=Nc1nc(CSCCC(N)=NS(N)(=O)=O)cs1 [Famotidine]	8.38					
2.6 wt %	65.6	0.8 wt %	20.0	0.5 wt %	12.0	6	8.3	12.0	4.3	Nc1cc(N2CCCCC2)nc(N)[n+]1[O-] [Minoxidil]	4.61	1.24	0.3 wt %	0.5 wt %	0.2 wt %	
